Source: patent US20130266964A1, “METHOD OF DETECTING ENDOTHELIAL PROGENITOR CELLS” (PURDUE RESEARCH FOUNDATION, priority 2006, published 2013)

Assays:
[1] = target: T1, cell surface folate receptors on folate receptor positive M109 cells (Mus musculus, UniProt P35846); assay: fluorescence measurement of binding to cell surface folate receptors on M109 cells in culture; format: cell-based
T1 construct: cell surface folate receptors on folate receptor positive M109 cells in culture; endogenous in cells; host or cells: M109 cells
Experimental: AlexaFluor 488 C5-maleimide (Molecular Probes, Eugene, Oreg.) was dissolved in dimethyl sulfoxide (DMSO) (0.5 mg in 50 μl DMSO). A 1.5 molar equivalent (0.57 mg) of Folate-Cys was added to the solution and mixed for 4 hours at room temperature. Folate-Cys-AlexaFluor 488 (Folate-AlexaFluor) was purified by reverse-phase HPLC on a C18 column at a flow rate of 1 ml/min. The mobile phase, consisting of 10 mM NH4HCO3 buffer, pH 7.0 (eluent A) and acetonitrile (eluent B), was maintained at a 99:1 A:B ratio for the first minute and then changed to 1:99 A:B in a linear gradient over the next 29 minutes. Folate-Cys-AlexaFluor 488 eluted at 20 minutes. The product was confirmed by mass spectroscopy and the biologic activity was confirmed by fluorescence measurement of its binding to cell surface folate receptors on folate receptor positive M109 cells in culture.
Texas Red C2-maleimide (Molecular Probes, Eugene, Oreg.) was dissolved in dimethyl sulfoxide (DMSO) (1 mg in 200 μl DMSO). A 1.4 molar equivalent (1 mg) of Folate-Cys was added to the solution and mixed for 4 hours at room temperature. […] The product was confirmed by mass spectroscopy and the biologic activity was confirmed by fluorescence measurement of its binding to cell surface folate receptors on folate receptor positive M109 cells in culture.

[2] = system: folate receptor on CD133+ Flk1+ endothelial progenitor cells; assay: folate-FITC binding to endothelial progenitor cells quantified by flow cytometry; format: cell-based, BALB/c mice; conditions: 100 nM folate-FITC
Experimental: Female 6- to 8-week-old BALB/c mice were injected in the peritoneal cavity with either Complete Freund's Adjuvant (CFA; 50-100 μL), Pseudomonas aeruginosa (1×10^7 CFU (colony forming units)), or Yersinia enterocolitica (1×10^6 CFU). Cells were isolated from the peritoneal cavity by lavage with 8 mL of sterile phosphate-buffered saline (PBS) 2-4 days later. The cells were pelleted by centrifugation (400×g, 10 minutes at room temperature) and resuspended in folate-deficient RPMI-1640 media (FD-RPMI; Gibco) containing 10% heat-inactivated fetal bovine serum (FBS), penicillin (100 IU/mL) and streptomycin (100 μg/mL). Peritoneal extracted cells were seeded at densities of 1×10^6 cells/microcentrifuge tube for antibody and folate conjugate studies.
All binding experiments were conducted on ice or in a 4° C. cold room unless indicated otherwise. All antibody labeling was optimized by titration. Optimal labeling was most often achieved with a 1/1000-1/10,000 dilution of the manufacture's stock antibody solution. After cells were labeled with antibodies, the samples were washed twice with PBS to remove non-specific binding. The samples were then incubated with a 100 nM concentration of folate-FITC for 45 minutes. […] All samples were analyzed by flow cytometry using a Becton Dickinson FACS Calibur (BD, Franklin Lakes, N.J.).

T1 sequence (P35846 25-232): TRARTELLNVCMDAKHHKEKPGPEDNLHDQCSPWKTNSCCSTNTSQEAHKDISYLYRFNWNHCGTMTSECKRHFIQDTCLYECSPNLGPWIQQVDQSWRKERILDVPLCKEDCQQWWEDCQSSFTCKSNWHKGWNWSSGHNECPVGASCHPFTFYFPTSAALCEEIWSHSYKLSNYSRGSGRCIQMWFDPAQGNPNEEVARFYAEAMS

| Compound | biologic activity: binding to cell surface folate receptors [1] | binding to CD133+ Flk1+ endothelial progenitor cells ([2]; 45 minutes, on ice or 4° C., absence of unlabeled folic acid) | binding to CD133+ Flk1+ endothelial progenitor cells with competition ([2]; pre-incubation with 100-fold excess of unlabeled folic acid (10 μM)) |
| --- | --- | --- | --- |
| N=c1ccc2c(-c3ccc(C(=O)NCCCCCN4C(=O)CC(SCC(NC(=O)CCC(NC(=O)c5ccc(NCc6cnc7nc(N)[nH]c(=O)c7n6)cc5)C(=O)O)C(=O)O)C4=O)cc3C(=O)O)c3ccc(N)c(S(=O)(=O)O)c3oc-2c1S(=O)(=O)O (stereo not shown) [Folate-Cys-AlexaFluor 488] | confirmed | – | – |
| Nc1nc2ncc(CNc3ccc(C(=O)NC(CCC(=O)NC(CSC4CC(=O)N(CCNS(=O)(=O)c5ccc(C6=c7cc8c9c(c7Oc7c6cc6c%10c7CCCN%10CCC6)CCC[N+]=9CCC8)c(S(=O)(=O)O)c5)C4=O)C(=O)O)C(=O)O)cc3)nc2c(=O)[nH]1 (stereo not shown) [Folate-Cys-Texas Red] | confirmed | – | – |
| Nc1nc2ncc(CNc3ccc(C(=O)NC(CCC(=O)NCCNC(=S)Nc4ccc(C(=O)O)c(-c5c6ccc(=O)cc-6oc6cc(O)ccc56)c4)C(=O)O)cc3)nc2c(=O)[nH]1 (stereo not shown) [folate-FITC] | – | bound | competed |
